Measurements reported in patent US8536165B2, “Azabiphenylaminobenzoic acid derivatives as DHODH inhibitors” (Almirall, S.A., priority 2007, dated 2013).

What was measured:
human DHODH = human DHODH (Homo sapiens (Human), UniProt Q02127); test: Inhibition of Human DHODH Activity Assay; format: biochemical; settings: chromogen reduction assay with DCIP, human enzyme extract, 10 min at room temperature; read-out: hDHODH IC50
Method: DHODH activity and its inhibition were studied using a chromogen reduction assay with DCIP (2,6-dichlorophenol-indophenol). […] Enzyme extracts (8 μl, ˜1.5 μg of human protein) were incubated in 96-well plates. The assay mixture (200 μl) contained 200 μM CoQD, 100 μM L-DHO, 120 μM DCIP in the assay buffer (100 mM HEPES pH 8.0, 150 mM NaCl, 10% Glicerol, 0.05% Triton X-100) and 2 μl of test compound. The compounds were dissolved in DMSO at a stock concentration of 1 mM, and tested at different concentrations […] to calculate an IC50 (concentration of inhibitor required for 50% of inhibition).
The reaction was initiated by adding the enzyme and then incubated for 10 min at room temperature before measuring DCIP reduction by counting a decrease in absorbance at 600 nm using standard instrumentation (Spectramax).
All reactions were carried out in duplicate and graphs, determining IC50 values for each compound, were plotted using the ABase software.

HIV = settings: at concentration that can be obtained with conventional dosing; cited from earlier work

Sequence of human DHODH (Q02127 whole entry): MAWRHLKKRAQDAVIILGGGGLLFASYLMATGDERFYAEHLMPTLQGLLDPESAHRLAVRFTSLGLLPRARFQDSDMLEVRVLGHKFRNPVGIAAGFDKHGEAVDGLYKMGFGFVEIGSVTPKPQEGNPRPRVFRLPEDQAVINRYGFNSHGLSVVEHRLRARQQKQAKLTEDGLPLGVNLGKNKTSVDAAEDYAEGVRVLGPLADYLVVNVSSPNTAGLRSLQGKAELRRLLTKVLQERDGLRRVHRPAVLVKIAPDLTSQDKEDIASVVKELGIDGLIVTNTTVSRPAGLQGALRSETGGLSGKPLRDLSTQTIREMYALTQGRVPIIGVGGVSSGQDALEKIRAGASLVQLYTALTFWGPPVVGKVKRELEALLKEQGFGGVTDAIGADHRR

Compound	IC50 (human DHODH) [nM]	reduction of HIV replication (HIV)
O=C(O)c1cc(C2CC2)ccc1Nc1cnc(-c2cc(C(F)(F)F)ccc2F)nc1 [Example 104, 5-Cyclopropyl-2-(2-(2-fluoro-5-(trifluoromethyl)phenyl)pyrimidin-5-ylamino)benzoic acid]	21	–
Cc1oncc1C(=O)Nc1ccc(C(F)(F)F)cc1 [Leflunomide]	–	about 75%
